Experimental data as given in patent US6630140B1, “Compositions and methods for treatment of asthma” (The Children's Hospital of Philadelphia, priority 1998, dated 2003).
Where a name gives a salt, the structure may show the parent alone.

Assays:
[1] = tested on: tracheal smooth muscle (TSM) segments; test: Relaxation dose-response to isoproterenol in TSM segments half-maximally contracted with ACh; format: cell-based, rabbit
Method: Rabbits were anesthetized with xylazine (10 mg/kg) and ketarnine (50 mg/kg) and were subsequently sacrificed using an overdose of pentobarbital (130 mg/kg). The tracheae of the rabbits were removed via open thoracotomy, the tracheae were cleared of loose connective tissue and were divided into eight ring segments of 6-8 mm length. Each segment referred to herein as a tracheal smooth muscle (TSM) segment was incubated for 24 hours at room temperature in either of the following: 1) human serum containing immunoglobulin (Ig) E at greater than 1000 IU/ml which was obtained from allergic patients having moderate to severe asthma and a 4-5/6+radioallergosorbent test (RAST) positive (having a specific IgE concentration of more than 17.5 Phadebas RAST units (PRU)/ml) to Dermatophagoides pteronyssimus, Dermatophagoides farinae and ragweed, and a positive skin test to these antigens; or 2) human serum obtained from non-atopic, non-asthmatic individuals having normal serum IgE levels (i.e., <70 IU/ml) and negative skin test reactivity to Dermatophagoides pteronyssimus, Dermatophagoides farinae and ragweed (Hakonarson et al. 1995, Am. J. Physiol. (Lung Cell Mol. Physiol.) 269:L645-L652).
In parallel experiments, TSM segments were incubated in either control serum or in atopic asthmatic serum that was: a) depleted of its immunoglobulin complexes by pretreatment with sepharose Staphylococcus protein A as described (Kessler, 1975, J. Immunol. 1 15:161.7-1624); b) co-incubated with an anti-CD23 (40 μg/ml) monoclonal blocking antibody; or c) with an anti-CD 16 (2 μg/ml) monoclonal blocking antibody. The TSM segments were treated with their respective anti-CD23 or anti-CD16 antibodies in Dulbecco's modified Eagle's medium for 1 hour prior to exposure to the atopic asthmatic serum.
In extended experiments, paired TSM segments were incubated for 24 hours in Dulbecco's modified Eagle's medium, as previously described (Hakonarson et al., 1996, J. Clin. Invest. 97:2593-2600), containing either: a) human IgE (final bath concentration (FBC): 15 μg/ml); or b) human IgE-goat-anti-human IgE immune complexes (FBC: 15:5 μg/ml of IgE/anti-IgE in the final organ bath mixture). Tissues incubated in medium alone served as controls. The concentrations of immune complexes used for the TSM incubations were based on the results obtained in pilot studies which were designed to determine the concentration and ratio of immune complexes that induced the greatest acute contractile effect in isolated sensitized TSM segments. The serum was aerated with a continuous supplemental O2 mixture (95% O2/5% CO2) during the incubation phase.
Following incubation of the tissue preparations obtained as described herein, each rabbit airway segment was suspended longitudinally between stainless steel triangular supports in siliconized Harvard 20 ml organ baths. […] Care was taken to place the membranous portion of the trachea between the supports in order to maximize the recorded tension generated by the contracting trachealis muscle. The tissues were bathed in modified Krebs-Ringer solution containing 125 mM NaCl, 14 mM NaHCO3, 4 mM KCl, 2.25 mM CaCl2.H2O, 1.46 MgSO4.H2O, 1.2 mM NaH2PO4.H2O and 11 mM glucose. The baths were aerated with 5% CO2 in oxygen, a pH of 7.35-7.40 was maintained, and the organ bath temperature was held at 37° C. Passive resting tension of each TSM segment was set at 2.0 g after each tissue had been passively stretched to a tension of 8 g in order to optimize the resting length of each segment as described (Tanaka et al., 1990, J. Clin. Invest. 85:345-350). The tissues were allowed to equilibrate in the organ baths for 45 minutes, at which time each tissue was primed with a 1 minute exposure to 10−4 M acetylcholine (ACh). […]

[2] = tested on: tracheal smooth muscle (TSM) segments; test: Cholinergic contractility of isolated TSM segments to cumulative ACh (organ bath, isometric tension); format: cell-based, rabbit
Method: Rabbits were anesthetized with xylazine (10 mg/kg) and ketarnine (50 mg/kg) and were subsequently sacrificed using an overdose of pentobarbital (130 mg/kg). The tracheae of the rabbits were removed via open thoracotomy, the tracheae were cleared of loose connective tissue and were divided into eight ring segments of 6-8 mm length. […]
Following incubation of the tissue preparations obtained as described herein, each rabbit airway segment was suspended longitudinally between stainless steel triangular supports in siliconized Harvard 20 ml organ baths. […] Care was taken to place the membranous portion of the trachea between the supports in order to maximize the recorded tension generated by the contracting trachealis muscle. […]

[3] = TSM incubated with control serum

Molecule	Rmax (% maximal relaxation) for isoproterenol ([1]; IgE immune complex-treated TSM (15:5 μg/ml, 24 h)) [%]	Rmax (% maximal relaxation) for isoproterenol ([1]; atopic asthmatic serum-sensitized TSM) [%]	Rmax (% maximal relaxation) for isoproterenol ([1]; control TSM, vehicle alone 24 h) [%]	Rmax (% maximal relaxation) for isoproterenol ([1]; control serum-treated TSM) [%]	Effect on relaxation responsiveness to isoproterenol [1, 3]	Effect on the attenuated isoproterenol-induced relaxation responses ([1]; atopic asthmatic serum-sensitized TSM, tissue pretreated with antibody (anti-CD23 40 μg/ml, anti-CD16 2 μg/ml) or serum depleted with SpA)	Effect on contractility of the tissue to ACh [2, 3]	Effect on the induced augmented constrictor responses to ACh ([2]; atopic asthmatic serum-sensitized TSM, tissue pretreated with antibody (anti-CD23 40 μg/ml, anti-CD16 2 μg/ml) or serum pre-treated with SpA)
CC(C)NCC(O)c1ccc(O)c(O)c1 (centres unmarked) [isoproterenol, isoproterenol hydrochloride]	36.8±10.4	26.0±5.1	67.8±6.0	47.0±4.7				
SpA: Sepharose Staphylococcus protein A used to deplete the sensitizing serum of its immune complexes					neither anti-CD23 MAb nor pretreatment of the control serum with SpA affected	ablated	neither anti-CD23 MAb nor pretreatment of the control serum with SpA affected	largely prevented
